# Key:
# HIV-1 with HIV-1AD8 Env = assay: microbe, parasite or virus in culture; format: cell-based; conditions: for IC50: Human immunodeficiency virus 1, Cf2Th-CD4/CCR5 target cells, 48 hours, luciferase, means and standard errors of four experiments, read-out: 50% inhibitory concentration (IC50), AD8; for Potency of inhibition of HIV-1 infection (in words): Table 1 HIV-1 Envs
# HIV-1 with BG505 Env = assay: microbe, parasite or virus in culture; format: cell-based; conditions: Human immunodeficiency virus 1; Cf2Th-CD4/CCR5 target cells, 48 hours, luciferase; means and standard errors of four experiments; read-out: 50% inhibitory concentration (IC50), BG505
# [1] = test system: HIV-1 with HIV-1JR-FL Env; assay: microbe, parasite or virus in culture; format: cell-based; conditions: Human immunodeficiency virus 1; Cf2Th-CD4/CCR5 target cells, 48 hours, luciferase; means and standard errors of four experiments; read-out: 50% inhibitory concentration (IC50), JR-FL
# [2] = test system: HIV-1 with JR-FL S375W Env; format: cell-based; conditions: Cf2Th-CD4/CCR5 target cells, 48 hours, luciferase; read-out: 50% inhibitory concentration (IC50), JR-FL S375W
# [3] = test system: envelope glycoproteins of the amphotropic murine leukemia virus (AMLV); assay: microbe, parasite or virus in culture; format: cell-based; conditions: Cf2Th-CD4/CCR5 target cells, 48 hours, luciferase, specificity control, read-out: 50% inhibitory concentration (IC50), AMLV
# HIV-1AD8 Env on VLPs [4] = assay: Reversibility of compound effects on VLP Env conformation (19b antibody recognition after washing); conditions: for Durability / reversibility of Env conformational effects (in words): after washing
# Experimental: (§1) Characterization of VLP-associated Env: To prepare VLPs with HIV-1AD8 Env, 150-mm dishes of 30-40% confluent A549-Gag/Env cells were seeded and, on the following day, treated with 2 μg/ml doxycycline. Approximately 72 hours after induction, cell supernatants were harvested and cleared by low-speed centrifugation (500×g for 15 minutes at 4° C.) and 0.45-μ filtration. VLPs were pelleted by centrifugation at 100,000×g for one hour at 4° C. The resuspended VLP preparation was clarified by low-speed centrifugation. BMS-806 and compounds described herein were added to the clarified VLP-containing suspensions. In some cases, the VLP-compound mixtures were irradiated with a 100-watt, 365-nm ultraviolet (UV) lamp for 10 minutes at room temperature. For all UV studies, exposure of the samples to visible light was minimized.
# For studies of the reversibility of effects, the compounds were added to the VLPs and mixed for several seconds at room temperature. Then the VLPs were pelleted (20,000×g for 30 minutes at 4° C.) twice, washing with 1.5 ml PBS with 2% DMSO. The pelleted VLPs were resuspended in 1 ml PBS with 2% DMSO and incubated at room temperature for various lengths of time (20 minutes—3 weeks). Control VLPs were incubated in the continued presence of the compounds at room temperature for the same length of time. Then the VLPs were pelleted (20,000×g for 30 minutes at 4° C.) and the pellet incubated with 1.5% Triton X-100 for 30 minutes at 4° C. The VLP lysates were centrifuged (20,000×g for 30 minutes at 4° C.) and the supernatants were incubated with antibodies (10 μg/ml) in a 50-μl volume with 25 mg/ml of Protein A-Sepharose beads for one hour at 4° C. The beads were pelleted (1000 rpm for 1 minute at room temperature) and washed three times with 1 ml wash buffer with 1% Triton X-100. The beads were suspended in NuPAGE LDS Sample Buffer (ThermoFisher), boiled and analyzed by Western blot, as described above.
# The BMS-806-induced decrease in binding of the 19b anti-V3 antibody can be used as an indicator of BMS-806-Env binding, allowing estimation of the stability of the Env-compound complex. BMS-806 and BMS-529 were incubated with the HIV-1AD8 Env on VLPs. The VLPs were then washed and incubated at room temperature for various lengths of time in a buffer with (+/+) or without (+/−) compound. After this incubation, Env conformation was assessed using the 19b anti-V3 antibody, the 2G12 antibody (the binding of which is not affected by BMS-806), and a negative control human immunoglobulin (hIgG) preparation. 19b recognition of Env in the washed samples (+/−) was compared with those in the samples continuously incubated with the compound (+/+) and the untreated samples (−) (FIG. 4). […] Despite this slow rate of dissociation of compounds described herein from Env, the binding and the consequent effects of these compounds on Env conformation appear to be reversible.
# HIV-1AD8 Env on VLPs [5] = assay: Shedding of gp120 from VLP Env; conditions: 4° C. and 37° C., 4 days, no detergent
# Experimental: Shedding of gp120 from VLP Env: The effect of compounds on the spontaneous shedding of gp120 from VLP Env was evaluated. VLPs with the wild-type HIV-1AD8 Env were prepared from the supernatants of A549-Gag/Env cells, as described above. The VLPs were suspended in PBS, to which was added either DMSO or a compound described herein. An aliquot of the VLP suspension in PBS/DMSO was processed as described below to serve as a Day 0 control. The VLP suspensions were incubated for 4 days at 4° C., room temperature or 37° C. (with gentle rocking). Then the VLPs were pelleted (100,000×g for 30 min at 4° C.). The pellets and supernatants were boiled in LDS sample buffer and analyzed by Western blotting with either 1:2000 goat anti-gp120 polyclonal antibody (ThermoFisher) and HRP-conjugated rabbit anti-goat IgG antibody, or with 1:5000 rabbit anti-Gag p55/p24/p17 antibody (Abcam) and HRP-conjugated goat anti-rabbit IgG antibody (Abcam).
# VLP HIV-1AD8 Env = assay: Antibody recognition of VLP-associated Env; conditions: compound plus UV irradiation
# Experimental: as §1
# For studies of the binding of ligands (antibodies, CD4-Ig and C34-Ig) to detergent-solubilized VLP Env, VLPs prepared as described above were pelleted (20,000×g for 30 minutes at 4° C.). The pellet was incubated with 1.5% Triton X-100 for 30 minutes at 4° C. The VLP lysates were centrifuged (20,000×g for 30 minutes at 4° C.) and the supernatants were incubated with ligands (10 μg/ml) in a 50-μl volume with 25 mg/ml of Protein A-Sepharose beads for one hour at 4° C. The beads were pelleted (1000 rpm for 1 minute at room temperature), washed three times with 1 ml wash buffer with 1% Triton X-100, suspended in LDS Sample Buffer and analyzed by Western blot, as described above.
# In a second assay format, the effect of the compounds was analyzed on the binding of antibodies to Env on intact VLPs, in the absence of detergent. In this case, VLPs in A549-Gag/Env supernatants, clarified as described above, were pelleted at 100,000×g for one hour at 4° C. The pellet was resuspended in PBS and the VLPs pelleted at 20,000×g for 30 minutes at 4° C. The VLPs were resuspended in PBS and incubated with antibodies (10 μg/ml) in a 100-μl volume for one hour at 4° C. The VLPs were then pelleted (20,000×g for 30 minutes at 4° C.) and washed with PBS three times. The VLP pellet was then solubilized in 1.5% Triton X-100 for 30 minutes at 4° C., after which the VLP lysates were clarified by centrifugation at 20,000×g for 30 minutes at 4° C. The supernatants were incubated with 50 μl of Protein A-Sepharose beads for one hour at 4° C. The beads were pelleted (1000 rpm for 1 minute at room temperature), washed three times with 1 ml wash buffer with 1% Triton X-100, suspended in LDS Sample Buffer, and analyzed by Western blot, as described above.
SMILES,IC50 (HIV-1 with HIV-1AD8 Env) [nM],IC50 (HIV-1 with BG505 Env) [nM],IC50 [1] [nM],IC50 [2] [nM],IC50 [3] [nM],Durability / reversibility of Env conformational effects (in words) (HIV-1AD8 Env on VLPs [4]),Potency of inhibition of HIV-1 infection (in words) (HIV-1 with HIV-1AD8 Env),Spontaneous shedding of gp120 into the VLP supernatant (HIV-1AD8 Env on VLPs [5]),"VLP Env recognition by poorly neutralizing antibodies two weeks after treatment (VLP HIV-1AD8 Env; washed, two weeks without compound)","VLP Env recognition by bNAbs two weeks after treatment (VLP HIV-1AD8 Env; PG9, PGT145, PGT151, 35022, 2F5, 4E10, 10E8)","Time until conformational effects on Env are reversed after washing (HIV-1AD8 Env on VLPs [4]; VLPs in PBS with 2% DMSO, room temperature) [days]","Conformational effect on 19b binding after washing (HIV-1AD8 Env on VLPs [4]; twenty-four hours after washing, room temperature)"
COc1ccc(-c2ccc(CNC(=O)c3ccc(C4(C(F)(F)F)N=N4)cc3)o2)c2[nH]cc(C(=O)C(=O)N3CCN(C(=O)c4ccccc4)CC3)c12 [AEG-II-159],0.2,0.8,1.6,> 100,> 100,at least three weeks,,,,,,
COc1ccc(-c2ccc(CNC(=O)c3ccccc3)o2)c2[nH]cc(C(=O)C(=O)N3CCN(C(=O)c4ccccc4)CC3)c12 [AEG-III-032],0.36,1.5,0.6,> 100,> 100,,potencies comparable to that of BMS-806,,,,,
O=C(Nc1cccc2c(C(=O)C(=O)N3CCN(C(=O)c4ccccc4)CC3)c[nH]c12)c1ccc(C2(C(F)(F)F)N=N2)cc1 [AEG-III-087],0.06,1.9,0.1,> 100,> 100,,,decreased the shedding of gp120,lowered Env recognition by poorly neutralizing antibodies,this increase was not seen,,
O=C(Nc1cccc2c(C(=O)C(=O)N3CCN(C(=O)c4ccccc4)CC3)c[nH]c12)c1ccccc1 [AEG-III-096],2.4,,0.9,> 100,> 100,much faster reversibility,potencies comparable to that of BMS-806,,,,,
"COc1cnc(-n2cnc(C)n2)c2[nH]cc(C(=O)C(=O)N3CCN(C(=O)c4ccccc4)CC3)c12 [BMS-529, reference compound]",,,,,,,,,,,2 to 4,still apparent

# — US12729194B2, “Compounds for the treatment of human immunodeficiency virus” (priority 2019, dated 2026)
